Test results from publication PMC3196298 (Bioorganic & medicinal chemistry, 2011).

Experiments:
cholinergic esterases = type: biochemical
BChE = BChE (Equus caballus, UniProt P81908); type: biochemical, equine
[1] = molecular target: AChE purified from Electrophorus electricus (Electric eel) (Electrophorus electricus, UniProt O42275); assay: biochemical; type: biochemical
BoNT/A induced paralysis = settings: cited from earlier work
AChE [2] = molecular target: AChE (Electrophorus electricus, UniProt O42275); type: biochemical
[3] = in vivo; cited from earlier work
AChE [4] = settings: cited from earlier work

Chain of AChE purified from Electrophorus electricus (Electric eel) (O42275 24-633): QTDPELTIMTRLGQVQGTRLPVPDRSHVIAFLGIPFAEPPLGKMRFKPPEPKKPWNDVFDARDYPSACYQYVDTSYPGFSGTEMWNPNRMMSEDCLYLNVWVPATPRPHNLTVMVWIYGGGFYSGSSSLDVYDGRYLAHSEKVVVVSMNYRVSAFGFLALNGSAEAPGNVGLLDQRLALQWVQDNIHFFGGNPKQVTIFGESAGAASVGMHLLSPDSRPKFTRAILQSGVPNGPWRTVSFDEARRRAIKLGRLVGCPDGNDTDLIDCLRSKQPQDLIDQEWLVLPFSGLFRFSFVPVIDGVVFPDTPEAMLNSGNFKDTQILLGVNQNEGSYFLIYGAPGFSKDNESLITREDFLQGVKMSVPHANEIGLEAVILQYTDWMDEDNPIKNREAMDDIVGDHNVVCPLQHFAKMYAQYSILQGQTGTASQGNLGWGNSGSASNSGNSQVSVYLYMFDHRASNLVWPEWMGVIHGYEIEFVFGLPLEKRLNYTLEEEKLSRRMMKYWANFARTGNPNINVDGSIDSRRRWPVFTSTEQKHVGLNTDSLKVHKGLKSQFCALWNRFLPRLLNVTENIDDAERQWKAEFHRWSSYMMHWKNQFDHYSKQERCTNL
Chain of AChE (Electrophorus electricus, UniProt O42275) (O42275 24-633): as above
Chain of BChE (P81908 whole entry): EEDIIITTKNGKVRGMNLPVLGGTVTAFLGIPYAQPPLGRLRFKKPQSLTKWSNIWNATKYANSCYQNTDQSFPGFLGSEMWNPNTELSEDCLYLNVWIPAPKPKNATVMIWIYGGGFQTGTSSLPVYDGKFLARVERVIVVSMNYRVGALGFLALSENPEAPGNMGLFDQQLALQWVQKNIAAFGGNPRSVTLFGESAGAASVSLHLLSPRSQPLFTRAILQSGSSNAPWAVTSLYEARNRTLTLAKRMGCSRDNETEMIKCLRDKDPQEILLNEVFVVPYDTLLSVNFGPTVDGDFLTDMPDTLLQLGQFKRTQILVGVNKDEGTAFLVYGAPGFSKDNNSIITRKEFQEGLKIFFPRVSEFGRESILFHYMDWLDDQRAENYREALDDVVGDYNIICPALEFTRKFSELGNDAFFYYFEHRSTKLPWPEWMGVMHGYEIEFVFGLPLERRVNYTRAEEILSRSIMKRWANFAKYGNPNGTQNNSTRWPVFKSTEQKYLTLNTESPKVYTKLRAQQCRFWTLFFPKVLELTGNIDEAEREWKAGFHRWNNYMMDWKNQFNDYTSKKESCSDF

COC(=O)Nc1cnccc1N [Compound 16]
enzymatic generation of 3,4-DAP (in words) (cholinergic esterases): failed as pseudosubstrates to generate 3,4-DAP enzymatically

COC(=O)Nc1ccncc1NC(=O)OC [Compound 17]
enzymatic generation of 3,4-DAP (in words) (cholinergic esterases): failed as pseudosubstrates to generate 3,4-DAP enzymatically

CC(C)C(=O)Oc1ccc(COC(=O)Nc2ccncc2N)cc1 [Compound 6d]
apparent kcat relative to natural substrate BCh (BChE): approximately 10^−4 | binding to AChE more tightly than Km for ACh [1]: 100 fold | selectivity of AChE over BChE (in words) [1]: moderate selectivity

COC(=O)Nc1ccncc1N [Compound 19]
enzymatic generation of 3,4-DAP (in words) (cholinergic esterases): failed as pseudosubstrates to generate 3,4-DAP enzymatically

CCC(=O)Oc1ccc(COC(=O)Nc2ccncc2N)cc1 [Compound 6b]
apparent kcat relative to natural substrate BCh (BChE): approximately 10^−4 | binding to AChE more tightly than Km for ACh [1]: 100 fold | selectivity of AChE over BChE (in words) [1]: moderate selectivity

C#CC[n+]1ccc(N)c(N)c1 [3,4-diamino-1-(prop-2-ynl)pyridinium]
paralysis reversal (in words) (BoNT/A induced paralysis): paralysis reversal

CC(C)OC(=O)CCC(=O)Nc1ccncc1N [Compound 32]
release of 3,4-DAP upon incubation with AChE (in words) (AChE [2]): negligible release of 3,4-DAP | half-life in mouse sera: 2.8 h | Ki [1]: 3 µM | selectivity of AChE over BChE (in words) [1]: inhibited AChE selectively over BChE

Nc1cncc(N)c1N [3,4,5-triaminopyridine]
paralysis reversal (in words) (BoNT/A induced paralysis): paralysis reversal

Nc1ccncc1N [3,4-DAP, 3,4-diaminopyridine]
toxicity issues at high doses (in words) [3]: seizures

CC(=O)OCC[N+](C)(C)C [ACh, acetylcholine]
Km (AChE [4]): 400 µM

CC(=O)Nc1ccncc1N [Compound 21]
release of 3,4-DAP upon incubation with AChE (in words) (AChE [2]): did not undergo internal release | kinetic mechanism of inhibition of AChE [1]: competitive inhibition

Nc1ccncc1 [4-AP, 4-aminopyridine]
toxicity issues at high doses (in words) [3]: seizures
